In the kinase profiling compilation of Christmann-Franck et al. (2016):
Values joined by “and” are separate entries in the source; they are usually repeats but may differ in a detail not shown here. Identical values can stand only once.

Tests used:
Assay in all cases: KINOMEscan competition binding
Settings in all cases: compound 10.0 µM
PIK3CA (human) = PIK3CA (human) (UniProt P42336)
FES (human) = FES (human) (UniProt P07332)
NUAK2 (human) = NUAK2 (human) (UniProt Q9H093)
ULK3 (human) = ULK3 (human) (UniProt Q6PHR2)
NLK (human) = NLK (human) (UniProt Q9UBE8)
SYK (human) = SYK (human) (UniProt P43405)
CAMK1 (human) = CAMK1 (human) (UniProt Q14012)
NEK5 (human) = NEK5 (human) (UniProt Q6P3R8)
ERBB2 (human) = ERBB2 (human) (UniProt P04626)
PRKCE (human) = PRKCE (human) (UniProt Q02156)
PRKCH (human) = PRKCH (human) (UniProt P24723)
HCK (human) = HCK (human) (UniProt P08631)
ADCK4 (human) = ADCK4 (human) (UniProt Q96D53)
[1] = system: ABL1 (human), P00519 [T315I]
MAP3K10 (human) = MAP3K10 (human) (UniProt Q02779)
MAPK3 (human) = MAPK3 (human) (UniProt P27361)
FGR (human) = FGR (human) (UniProt P09769)
PTK2B (human) = PTK2B (human) (UniProt Q14289)
IRAK3 (human) = IRAK3 (human) (UniProt Q9Y616)
[2] = system: EGFR (human), P00533 [L861Q]
CDK2 (human) = CDK2 (human) (UniProt P24941)
SGK110 (human) = SGK110 (human) (UniProt P0C264)
ABL2 (human) = ABL2 (human) (UniProt P42684)
[3] = system: EGFR (human), P00533 [752-759 del]
MST1R (human) = MST1R (human) (UniProt Q04912)
MAP4K5 (human) = MAP4K5 (human) (UniProt Q9Y4K4)
TYRO3 (human) = TYRO3 (human) (UniProt Q06418)
CAMK2B (human) = CAMK2B (human) (UniProt Q13554)
PRKACB (human) = PRKACB (human) (UniProt P22694)
FLT1 (human) = FLT1 (human) (UniProt P17948)
STK32B (human) = STK32B (human) (UniProt Q9NY57)
SRPK1 (human) = SRPK1 (human) (UniProt Q96SB4)
EPHB2 (human) = EPHB2 (human) (UniProt P29323)
EGFR (human) = EGFR (human) (UniProt P00533)
AKT1 (human) = AKT1 (human) (UniProt P31749)
MERTK (human) = MERTK (human) (UniProt Q12866)
CSF1R (human) = CSF1R (human) (UniProt P07333)
MAPK10 (human) = MAPK10 (human) (UniProt P53779)
LIMK1 (human) = LIMK1 (human) (UniProt P53667)
ULK1 (human) = ULK1 (human) (UniProt O75385)
MAPKAPK2 (human) = MAPKAPK2 (human) (UniProt P49137)
MAP3K4 (human) = MAP3K4 (human) (UniProt Q9Y6R4)
Chain of MAP3K4 (human) (Q9Y6R4 whole entry, looked up): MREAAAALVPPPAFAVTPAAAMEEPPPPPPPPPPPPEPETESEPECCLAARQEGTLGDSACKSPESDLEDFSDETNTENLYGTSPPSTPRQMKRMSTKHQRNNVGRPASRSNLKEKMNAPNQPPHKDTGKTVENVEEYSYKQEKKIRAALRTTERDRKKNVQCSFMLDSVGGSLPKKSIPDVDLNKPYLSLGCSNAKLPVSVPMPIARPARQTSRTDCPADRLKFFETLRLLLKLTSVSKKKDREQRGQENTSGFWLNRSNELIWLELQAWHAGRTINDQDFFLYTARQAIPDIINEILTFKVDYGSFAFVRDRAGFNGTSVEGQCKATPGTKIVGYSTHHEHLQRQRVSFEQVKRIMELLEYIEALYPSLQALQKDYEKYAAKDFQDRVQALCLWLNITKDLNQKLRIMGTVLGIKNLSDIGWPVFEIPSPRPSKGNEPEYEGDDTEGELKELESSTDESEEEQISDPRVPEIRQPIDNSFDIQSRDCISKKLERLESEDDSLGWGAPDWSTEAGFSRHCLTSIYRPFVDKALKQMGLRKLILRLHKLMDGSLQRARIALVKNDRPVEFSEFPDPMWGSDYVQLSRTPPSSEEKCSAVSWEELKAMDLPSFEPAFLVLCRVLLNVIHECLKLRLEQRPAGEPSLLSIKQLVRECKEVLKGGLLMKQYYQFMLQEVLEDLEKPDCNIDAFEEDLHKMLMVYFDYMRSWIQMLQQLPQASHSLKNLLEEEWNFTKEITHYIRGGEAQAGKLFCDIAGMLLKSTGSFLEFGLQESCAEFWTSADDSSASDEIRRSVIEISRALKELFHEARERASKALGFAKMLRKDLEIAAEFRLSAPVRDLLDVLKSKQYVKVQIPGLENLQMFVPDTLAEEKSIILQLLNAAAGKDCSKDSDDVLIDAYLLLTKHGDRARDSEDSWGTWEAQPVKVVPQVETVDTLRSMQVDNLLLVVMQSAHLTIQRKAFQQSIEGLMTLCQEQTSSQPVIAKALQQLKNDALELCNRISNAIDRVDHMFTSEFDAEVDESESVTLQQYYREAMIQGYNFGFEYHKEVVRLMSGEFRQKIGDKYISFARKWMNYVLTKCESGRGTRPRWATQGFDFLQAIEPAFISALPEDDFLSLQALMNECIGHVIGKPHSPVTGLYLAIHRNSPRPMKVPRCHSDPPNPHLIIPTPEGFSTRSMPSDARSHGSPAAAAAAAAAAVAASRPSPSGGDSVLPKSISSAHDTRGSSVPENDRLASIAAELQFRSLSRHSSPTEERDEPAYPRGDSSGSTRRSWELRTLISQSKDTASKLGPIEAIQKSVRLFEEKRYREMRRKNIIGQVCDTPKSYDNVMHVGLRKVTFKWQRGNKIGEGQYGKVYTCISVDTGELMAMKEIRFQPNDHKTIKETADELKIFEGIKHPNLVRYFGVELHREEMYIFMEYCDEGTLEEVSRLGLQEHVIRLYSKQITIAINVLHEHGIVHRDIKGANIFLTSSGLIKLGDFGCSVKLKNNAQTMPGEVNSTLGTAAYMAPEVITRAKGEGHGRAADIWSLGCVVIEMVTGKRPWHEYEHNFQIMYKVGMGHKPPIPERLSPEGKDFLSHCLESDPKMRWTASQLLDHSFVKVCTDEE

Chain of MAPK10 (human) (P53779 whole entry, looked up): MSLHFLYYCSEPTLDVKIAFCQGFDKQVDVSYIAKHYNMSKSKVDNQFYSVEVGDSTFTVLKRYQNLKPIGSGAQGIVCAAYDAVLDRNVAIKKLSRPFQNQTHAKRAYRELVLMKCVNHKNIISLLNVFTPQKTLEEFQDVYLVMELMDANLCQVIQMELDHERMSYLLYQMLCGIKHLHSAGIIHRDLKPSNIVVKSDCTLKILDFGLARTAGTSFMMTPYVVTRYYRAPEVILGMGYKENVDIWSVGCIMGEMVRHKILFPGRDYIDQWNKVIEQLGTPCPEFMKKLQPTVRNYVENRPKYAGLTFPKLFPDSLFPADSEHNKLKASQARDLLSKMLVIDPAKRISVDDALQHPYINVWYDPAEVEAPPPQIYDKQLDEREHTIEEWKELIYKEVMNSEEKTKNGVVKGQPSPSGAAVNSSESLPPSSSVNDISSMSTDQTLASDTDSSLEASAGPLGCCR
Chain of MAP3K10 (human) (Q02779 whole entry, looked up): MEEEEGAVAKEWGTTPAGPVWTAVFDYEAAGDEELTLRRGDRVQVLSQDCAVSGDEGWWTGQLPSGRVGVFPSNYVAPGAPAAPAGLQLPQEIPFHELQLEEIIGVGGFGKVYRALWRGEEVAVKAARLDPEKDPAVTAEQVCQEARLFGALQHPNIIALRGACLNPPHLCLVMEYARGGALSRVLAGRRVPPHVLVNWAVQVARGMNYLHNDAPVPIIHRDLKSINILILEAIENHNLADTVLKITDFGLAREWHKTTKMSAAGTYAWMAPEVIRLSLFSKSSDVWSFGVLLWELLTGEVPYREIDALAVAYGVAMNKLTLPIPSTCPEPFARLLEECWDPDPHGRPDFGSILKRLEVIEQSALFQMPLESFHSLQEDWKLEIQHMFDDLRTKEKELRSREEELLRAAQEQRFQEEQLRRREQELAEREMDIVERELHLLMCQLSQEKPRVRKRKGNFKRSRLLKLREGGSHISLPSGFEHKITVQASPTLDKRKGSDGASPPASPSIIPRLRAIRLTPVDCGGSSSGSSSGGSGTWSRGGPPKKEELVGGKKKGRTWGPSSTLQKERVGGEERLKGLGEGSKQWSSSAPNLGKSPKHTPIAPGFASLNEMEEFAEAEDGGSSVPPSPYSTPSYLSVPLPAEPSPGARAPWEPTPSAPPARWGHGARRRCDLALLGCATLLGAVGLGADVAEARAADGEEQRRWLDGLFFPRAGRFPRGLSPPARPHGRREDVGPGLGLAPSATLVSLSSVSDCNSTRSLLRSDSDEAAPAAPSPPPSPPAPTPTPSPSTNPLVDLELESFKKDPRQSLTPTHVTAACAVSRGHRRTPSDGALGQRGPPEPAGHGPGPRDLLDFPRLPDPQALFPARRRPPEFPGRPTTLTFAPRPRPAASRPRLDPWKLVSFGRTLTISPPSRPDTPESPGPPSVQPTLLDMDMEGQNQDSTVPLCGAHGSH
Chain of CAMK2B (human) (Q13554 whole entry, looked up): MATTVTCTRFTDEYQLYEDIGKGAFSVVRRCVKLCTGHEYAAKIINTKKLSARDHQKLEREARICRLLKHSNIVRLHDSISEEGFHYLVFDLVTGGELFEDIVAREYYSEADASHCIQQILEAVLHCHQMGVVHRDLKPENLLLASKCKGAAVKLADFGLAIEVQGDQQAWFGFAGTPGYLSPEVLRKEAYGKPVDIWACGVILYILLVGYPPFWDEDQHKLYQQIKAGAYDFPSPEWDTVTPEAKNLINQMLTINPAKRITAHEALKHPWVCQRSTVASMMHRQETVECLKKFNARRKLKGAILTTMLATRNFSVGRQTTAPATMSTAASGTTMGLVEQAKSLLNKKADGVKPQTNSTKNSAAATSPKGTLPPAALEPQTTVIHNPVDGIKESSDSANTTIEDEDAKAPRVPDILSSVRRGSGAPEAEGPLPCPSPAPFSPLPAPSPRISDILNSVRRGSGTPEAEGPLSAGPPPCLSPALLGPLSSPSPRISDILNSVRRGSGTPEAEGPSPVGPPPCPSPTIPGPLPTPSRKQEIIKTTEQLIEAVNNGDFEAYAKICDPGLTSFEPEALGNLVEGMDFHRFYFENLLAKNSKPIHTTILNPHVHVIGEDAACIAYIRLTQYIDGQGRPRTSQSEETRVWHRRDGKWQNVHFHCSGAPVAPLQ
Chain of FGR (human) (P09769 whole entry, looked up): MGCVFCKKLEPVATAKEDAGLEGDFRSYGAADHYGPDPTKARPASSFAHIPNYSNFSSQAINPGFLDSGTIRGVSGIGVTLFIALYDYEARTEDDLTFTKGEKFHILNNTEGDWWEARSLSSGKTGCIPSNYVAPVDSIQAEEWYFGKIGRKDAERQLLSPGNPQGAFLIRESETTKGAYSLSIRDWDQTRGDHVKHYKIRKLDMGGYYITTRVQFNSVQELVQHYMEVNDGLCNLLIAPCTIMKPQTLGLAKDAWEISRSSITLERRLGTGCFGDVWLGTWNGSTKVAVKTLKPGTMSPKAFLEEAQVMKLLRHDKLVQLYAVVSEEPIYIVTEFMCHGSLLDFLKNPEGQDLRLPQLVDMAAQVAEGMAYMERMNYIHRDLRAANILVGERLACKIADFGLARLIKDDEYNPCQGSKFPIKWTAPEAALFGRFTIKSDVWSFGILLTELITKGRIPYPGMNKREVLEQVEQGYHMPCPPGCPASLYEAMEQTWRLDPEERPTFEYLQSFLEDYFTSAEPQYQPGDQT
Chain of ULK3 (human) (Q6PHR2 whole entry, looked up): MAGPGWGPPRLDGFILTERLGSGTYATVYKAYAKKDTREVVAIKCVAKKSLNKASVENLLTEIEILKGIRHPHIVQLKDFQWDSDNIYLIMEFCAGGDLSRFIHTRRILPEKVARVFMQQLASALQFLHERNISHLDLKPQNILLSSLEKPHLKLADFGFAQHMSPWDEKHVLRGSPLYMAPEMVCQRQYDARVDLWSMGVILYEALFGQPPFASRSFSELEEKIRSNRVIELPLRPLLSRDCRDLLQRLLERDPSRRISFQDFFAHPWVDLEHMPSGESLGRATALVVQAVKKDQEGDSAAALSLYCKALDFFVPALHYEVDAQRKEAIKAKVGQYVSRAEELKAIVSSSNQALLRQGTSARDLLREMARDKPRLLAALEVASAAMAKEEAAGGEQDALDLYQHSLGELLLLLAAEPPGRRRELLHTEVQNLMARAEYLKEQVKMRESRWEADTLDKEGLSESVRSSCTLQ
Chain of CAMK1 (human) (Q14012 whole entry, looked up): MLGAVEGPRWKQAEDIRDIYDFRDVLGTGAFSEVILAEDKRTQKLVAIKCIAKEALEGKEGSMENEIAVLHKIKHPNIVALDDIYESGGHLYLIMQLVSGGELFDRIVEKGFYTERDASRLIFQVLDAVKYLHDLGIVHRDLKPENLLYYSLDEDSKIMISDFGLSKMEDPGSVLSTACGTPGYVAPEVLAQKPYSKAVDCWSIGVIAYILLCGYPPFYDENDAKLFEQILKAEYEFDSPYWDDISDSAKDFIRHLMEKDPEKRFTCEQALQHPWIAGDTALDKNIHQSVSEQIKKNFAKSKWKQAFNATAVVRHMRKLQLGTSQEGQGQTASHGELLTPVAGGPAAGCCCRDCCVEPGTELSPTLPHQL

A kinase still bound, per cent of control (PIK3CA (human)) of 100%, a kinase still bound, per cent of control (FES (human)) of 90% and a kinase still bound, per cent of control (NUAK2 (human)) of 70% were found for CN1C(=O)c2ccccc2N(C)c2nc(NS(=O)(=O)c3ccc(N)cc3)ncc21 in this work. For the same compound, the kinase still bound, per cent of control (ULK3 (human)) was 100%, the kinase still bound, per cent of control (NLK (human)) was 100% and the kinase still bound, per cent of control (SYK (human)) was 100%. The kinase still bound, per cent of control (CAMK1 (human)) was 100%, the kinase still bound, per cent of control (NEK5 (human)) was 100% and the kinase still bound, per cent of control (ERBB2 (human)) was 100%. For the same compound, the kinase still bound, per cent of control (PRKCE (human)) was 100%, the kinase still bound, per cent of control (PRKCH (human)) was 86% and the kinase still bound, per cent of control (HCK (human)) was 100%. The kinase still bound, per cent of control (ADCK4 (human)) was 91%, the kinase still bound, per cent of control [1] was 97% and the kinase still bound, per cent of control (MAP3K10 (human)) was 100%. The kinase still bound, per cent of control (MAPK3 (human)) was 100%, the kinase still bound, per cent of control (FGR (human)) was 100% and the kinase still bound, per cent of control (PTK2B (human)) was 100%. The kinase still bound, per cent of control (IRAK3 (human)) was 100%, the kinase still bound, per cent of control [2] was 84% and the kinase still bound, per cent of control (CDK2 (human)) was 100%. It also gave a kinase still bound, per cent of control (SGK110 (human)) of 100%, a kinase still bound, per cent of control (ABL2 (human)) of 100% and a kinase still bound, per cent of control [3] of 100%. The kinase still bound, per cent of control (MST1R (human)) was 100%, the kinase still bound, per cent of control (MAP4K5 (human)) was 100% and the kinase still bound, per cent of control (TYRO3 (human)) was 100%. The kinase still bound, per cent of control (CAMK2B (human)) was 100%, the kinase still bound, per cent of control (PRKACB (human)) was 100% and the kinase still bound, per cent of control (FLT1 (human)) was 100%. It also gave a kinase still bound, per cent of control (STK32B (human)) of 100%, a kinase still bound, per cent of control (SRPK1 (human)) of 100% and a kinase still bound, per cent of control (EPHB2 (human)) of 94%. For the same compound, the kinase still bound, per cent of control (EGFR (human)) was 100%, the kinase still bound, per cent of control (AKT1 (human)) was 100% and the kinase still bound, per cent of control (MERTK (human)) was 82%. It also gave a kinase still bound, per cent of control (CSF1R (human)) of 89%, a kinase still bound, per cent of control (MAPK10 (human)) of 100% and a kinase still bound, per cent of control (LIMK1 (human)) of 100%. It also gave a kinase still bound, per cent of control (ULK1 (human)) of 85%, a kinase still bound, per cent of control (MAPKAPK2 (human)) of 96% and a kinase still bound, per cent of control (MAP3K4 (human)) of 85%.

A kinase still bound, per cent of control (PIK3CA (human)) of 49%, a kinase still bound, per cent of control (FES (human)) of 100% and a kinase still bound, per cent of control (NUAK2 (human)) of 37% were found for O=C1NC(=O)/C(=C/c2c[nH]c(=O)c(-c3ccc(N4CCNCC4)nc3)c2)S1 in this work. It also gave a kinase still bound, per cent of control (ULK3 (human)) of 100%, a kinase still bound, per cent of control (NLK (human)) of 97% and a kinase still bound, per cent of control (SYK (human)) of 100%. It also gave a kinase still bound, per cent of control (CAMK1 (human)) of 68%, a kinase still bound, per cent of control (NEK5 (human)) of 100% and a kinase still bound, per cent of control (ERBB2 (human)) of 57%. It also gave a kinase still bound, per cent of control (PRKCE (human)) of 56%, a kinase still bound, per cent of control (PRKCH (human)) of 100% and a kinase still bound, per cent of control (HCK (human)) of 100%. It also gave a kinase still bound, per cent of control (ADCK4 (human)) of 80%, a kinase still bound, per cent of control [1] of 57% and a kinase still bound, per cent of control (MAP3K10 (human)) of 100%. For the same compound, the kinase still bound, per cent of control (MAPK3 (human)) was 94%, the kinase still bound, per cent of control (FGR (human)) was 84% and the kinase still bound, per cent of control (PTK2B (human)) was 100%. For the same compound, the kinase still bound, per cent of control (IRAK3 (human)) was 100%, the kinase still bound, per cent of control [2] was 69% and the kinase still bound, per cent of control (CDK2 (human)) was 73%. The kinase still bound, per cent of control (SGK110 (human)) was 100%, the kinase still bound, per cent of control (ABL2 (human)) was 78% and the kinase still bound, per cent of control [3] was 95%. The kinase still bound, per cent of control (MST1R (human)) was 93%, the kinase still bound, per cent of control (MAP4K5 (human)) was 52% and the kinase still bound, per cent of control (TYRO3 (human)) was 100%. It also gave a kinase still bound, per cent of control (CAMK2B (human)) of 47%, a kinase still bound, per cent of control (PRKACB (human)) of 100% and a kinase still bound, per cent of control (FLT1 (human)) of 93%. The kinase still bound, per cent of control (STK32B (human)) was 100%, the kinase still bound, per cent of control (SRPK1 (human)) was 25% and the kinase still bound, per cent of control (EPHB2 (human)) was 71%. For the same compound, the kinase still bound, per cent of control (EGFR (human)) was 73% and 89%, the kinase still bound, per cent of control (AKT1 (human)) was 100% and the kinase still bound, per cent of control (MERTK (human)) was 83%. For the same compound, the kinase still bound, per cent of control (CSF1R (human)) was 69%, the kinase still bound, per cent of control (MAPK10 (human)) was 77% and the kinase still bound, per cent of control (LIMK1 (human)) was 94%. The kinase still bound, per cent of control (ULK1 (human)) was 21%, the kinase still bound, per cent of control (MAPKAPK2 (human)) was 100% and the kinase still bound, per cent of control (MAP3K4 (human)) was 14%.

A kinase still bound, per cent of control (PIK3CA (human)) of 100%, a kinase still bound, per cent of control (FES (human)) of 100% and a kinase still bound, per cent of control (NUAK2 (human)) of 100% were found for CN1CCN(c2ccc(C(=O)Nc3ncc4c(n3)N(C)c3ccccc3C(=O)N4C)cc2)CC1 in this work. It also gave a kinase still bound, per cent of control (ULK3 (human)) of 100%, a kinase still bound, per cent of control (NLK (human)) of 100% and a kinase still bound, per cent of control (SYK (human)) of 100%. For the same compound, the kinase still bound, per cent of control (CAMK1 (human)) was 100%, the kinase still bound, per cent of control (NEK5 (human)) was 100% and the kinase still bound, per cent of control (ERBB2 (human)) was 88%. It also gave a kinase still bound, per cent of control (PRKCE (human)) of 100%, a kinase still bound, per cent of control (PRKCH (human)) of 95% and a kinase still bound, per cent of control (HCK (human)) of 100%. For the same compound, the kinase still bound, per cent of control (ADCK4 (human)) was 100%, the kinase still bound, per cent of control [1] was 85% and the kinase still bound, per cent of control (MAP3K10 (human)) was 99%. The kinase still bound, per cent of control (MAPK3 (human)) was 100%, the kinase still bound, per cent of control (FGR (human)) was 100% and the kinase still bound, per cent of control (PTK2B (human)) was 100%. For the same compound, the kinase still bound, per cent of control (IRAK3 (human)) was 92%, the kinase still bound, per cent of control [2] was 88% and the kinase still bound, per cent of control (CDK2 (human)) was 98%. For the same compound, the kinase still bound, per cent of control (SGK110 (human)) was 100%, the kinase still bound, per cent of control (ABL2 (human)) was 100% and the kinase still bound, per cent of control [3] was 100%. The kinase still bound, per cent of control (MST1R (human)) was 93%, the kinase still bound, per cent of control (MAP4K5 (human)) was 100% and the kinase still bound, per cent of control (TYRO3 (human)) was 100%. For the same compound, the kinase still bound, per cent of control (CAMK2B (human)) was 98%, the kinase still bound, per cent of control (PRKACB (human)) was 100% and the kinase still bound, per cent of control (FLT1 (human)) was 100%. It also gave a kinase still bound, per cent of control (STK32B (human)) of 100%, a kinase still bound, per cent of control (SRPK1 (human)) of 100% and a kinase still bound, per cent of control (EPHB2 (human)) of 91%. It also gave a kinase still bound, per cent of control (EGFR (human)) of 100%, a kinase still bound, per cent of control (AKT1 (human)) of 100% and a kinase still bound, per cent of control (MERTK (human)) of 100%. For the same compound, the kinase still bound, per cent of control (CSF1R (human)) was 71%, the kinase still bound, per cent of control (MAPK10 (human)) was 93% and the kinase still bound, per cent of control (LIMK1 (human)) was 100%. The kinase still bound, per cent of control (ULK1 (human)) was 78%, the kinase still bound, per cent of control (MAPKAPK2 (human)) was 100% and the kinase still bound, per cent of control (MAP3K4 (human)) was 100%.
